Test results from BindingDB's records for doi:10.1021/jm960596u (National Cancer Institute-Bethesda, 1997).

How the values were obtained:
[1] = molecular target: T1, Integrase (Human immunodeficiency virus 1, UniProt Q7ZJM1); assay: Inhibitory concentration to inhibit HIV-1 integrase by 3' -processing method
[2] = molecular target: T1, Integrase; assay: Inhibitory concentration against HIV-1 integrase by strand transfer method

T1 sequence (Q7ZJM1 whole entry): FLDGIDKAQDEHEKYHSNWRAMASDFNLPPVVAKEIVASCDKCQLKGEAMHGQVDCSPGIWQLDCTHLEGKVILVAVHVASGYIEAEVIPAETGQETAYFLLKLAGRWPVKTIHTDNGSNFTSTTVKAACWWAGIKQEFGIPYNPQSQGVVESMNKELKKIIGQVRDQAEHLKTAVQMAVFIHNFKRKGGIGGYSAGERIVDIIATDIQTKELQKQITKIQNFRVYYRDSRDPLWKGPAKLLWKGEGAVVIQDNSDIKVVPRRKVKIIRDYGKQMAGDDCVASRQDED

Row | Compound | IC50 [1] | IC50 [2]
1 | CC1=C(N)C(=NNc2ccc(S(=O)(=O)Nc3nnc(C)s3)cc2)C(=O)C(C)C1=O (stereo not given) [4-(2-Amino-3,5-dimethyl-4,6-dioxo-cyclohex-1-enylazo)-N-(5-methyl-[1,3,4]thiadiazol-2-yl)-benzenesulfonamide] | > 200 µM | > 200 µM
2 | NS(=O)(=O)c1ccc(N=Nc2c(O)n(-c3ccccc3)n(-c3ccccc3)c2=O)cc1 [4-[N'-(3,5-Dioxo-1,2-diphenyl-pyrazolidin-4-ylidene)-hydrazino]-benzenesulfonamide] | > 200 µM | > 200 µM
3 | Cc1[nH]n(-c2ccccc2)c(=O)c1N=Nc1ccc(S(=O)(=O)Nc2ccccn2)cc1 [4-(3-Methyl-5-oxo-1-phenyl-4,5-dihydro-1H-pyrazol-4-ylazo)-N-pyridin-2-yl-benzenesulfonamide] | > 200 µM | > 200 µM
4 | CC1=C(N)C(=NNc2ccc(S(=O)(=O)Nc3ncccn3)cc2)C(=O)C(C)C1=O (stereo not given) [4-(2-Amino-3,5-dimethyl-4,6-dioxo-cyclohex-1-enylazo)-N-pyrimidin-2-yl-benzenesulfonamide] | > 200 µM | > 200 µM
5 | CC1=C(N)C(=NNc2ccc(S(=O)(=O)Nc3nccs3)cc2)C(=O)C(C)C1=O (stereo not given) [4-(2-Amino-3,5-dimethyl-4,6-dioxo-cyclohex-1-enylazo)-N-thiazol-2-yl-benzenesulfonamide] | > 200 µM | > 200 µM
6 | CC1=C(N)C(=NNc2ccc(S(=O)(=O)Nc3scc(C)c3C)cc2)C(=O)C(C)C1=O (stereo not given) [4-(2-Amino-3,5-dimethyl-4,6-dioxo-cyclohex-1-enylazo)-N-(3,4-dimethyl-thiophen-2-yl)-benzenesulfonamide] | > 200 µM | > 200 µM
7 | CC1=C(N)C(=NNc2ccc(S(=O)(=O)Nc3cc(C)nc(C)n3)cc2)C(=O)C(C)C1=O (stereo not given) [4-(2-Amino-3,5-dimethyl-4,6-dioxo-cyclohex-1-enylazo)-N-(2,6-dimethyl-pyrimidin-4-yl)-benzenesulfonamide] | > 200 µM | > 200 µM
8 | CC1=C(N)C(=NNc2ccc(S(=O)(=O)Nc3ccccn3)cc2)C(=O)C(C)C1=O (stereo not given) [4-(2-Amino-3,5-dimethyl-4,6-dioxo-cyclohex-1-enylazo)-N-pyridin-2-yl-benzenesulfonamide] | > 200 µM | > 200 µM
9 | NS(=O)(=O)c1ccc(N=Cc2c(O)n(-c3ccccc3)n(-c3ccccc3)c2=O)cc1 [4-[(3,5-Dioxo-1,2-diphenyl-pyrazolidin-4-ylidenemethyl)-amino]-benzenesulfonamide] | > 200 µM | > 200 µM
10 | Cc1cc(NS(=O)(=O)c2ccc(N=Nc3c(C)[nH]n(-c4ccccc4)c3=O)cc2)nc(C)n1 [N-(2,6-Dimethyl-pyrimidin-4-yl)-4-(3-methyl-5-oxo-1-phenyl-4,5-dihydro-1H-pyrazol-4-ylazo)-benzenesulfonamide] | > 200 µM | > 200 µM

The next lines start with the values.

Row | IC50 [1] | IC50 [2] | Compound
11 | > 200 µM | > 200 µM | CCC(=O)CC=c1[nH]c2nnc(CCCCc3nnc4[nH]c(=CCC(=O)CC)c(=O)n34)n2c1=O [1-(5-oxo-3-{4-[5-oxo-6-(3-oxopentyl)-5H-imidazo[2,1-c][1,2,4]triazol-3-yl]butyl}-5H-imidazo[2,1-c][1,2,4]triazol-6-yl)-3-pentanone]
12 | > 200 µM | > 200 µM | CC1=C(N)C(=NNc2ccc(S(=O)(=O)Nc3nccc(C)n3)cc2)C(=O)C(C)C1=O (stereo not given) [4-(2-Amino-3,5-dimethyl-4,6-dioxo-cyclohex-1-enylazo)-N-(4-methyl-pyrimidin-2-yl)-benzenesulfonamide]
13 | > 200 µM | > 200 µM | NS(=O)(=O)c1ccc(NN=C2Sc3nc4ccccc4n3C2=O)cc1 [4-(3-Oxo-2,3-dihydro-benzo[4,5]imidazo[2,1-b]thiazol-2-ylazo)-benzenesulfonamide]
14 | > 200 µM | > 200 µM | Cc1[nH]n(-c2ccccc2)c(=O)c1N=Nc1ccc(S(=O)(=O)Nc2ncccn2)cc1 [4-(3-Methyl-5-oxo-1-phenyl-4,5-dihydro-1H-pyrazol-4-ylazo)-N-pyrimidin-2-yl-benzenesulfonamide]
15 | > 200 µM | > 200 µM | Cc1[nH]n(-c2ccccc2)c(=O)c1N=Nc1ccc(S(N)(=O)=O)cc1
